The experiment deals with P388 leukemia ip, CD2F1 mice, survival T/C. Kind of experiment: NCI In Vivo Anticancer Drug Screen. Data for tumor model P388 Leukemia (intraperitoneal) in CD2F1 (CDF1) mice. Particulars: endpoint: median survival time, higher = longer survival. The essentials: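 Mice carrying the transplanted tumor received test compound or vehicle. Survival was recorded in each group, and the value is the treated-group measurement divided by that of the vehicle-treated control group.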

The mark [1] stands for this setting: dose: 50.0 mg/kg/injection, schedule: Q01DX005 (ip), vehicle: saline with Tween-80.
[2] abbreviates: dose: 100.0 mg/kg/injection, schedule: Q01DX005 (ip), vehicle: saline with Tween-80.
The mark [3] stands for this setting: dose: 200.0 mg/kg/injection, schedule: Q01DX005 (ip), vehicle: saline with Tween-80.
The mark [4] stands for this setting: dose: 50.0 mg/kg/injection, schedule: Q01DX005 (ip), vehicle: Klucel (hydroxypropylcellulose) (HPC).
Setting [5] is: dose: 100.0 mg/kg/injection, schedule: Q01DX005 (ip), vehicle: Klucel (hydroxypropylcellulose) (HPC).
Setting [6] is: dose: 100.0 mg/kg/injection, schedule: Q04DX002 (ip), vehicle: saline with Tween-80.
[7] abbreviates: dose: 12.5 mg/kg/injection, schedule: Q01DX005 (ip), vehicle: Klucel (hydroxypropylcellulose) (HPC).
Where [8] appears, read: dose: 25.0 mg/kg/injection, schedule: Q01DX005 (ip), vehicle: Klucel (hydroxypropylcellulose) (HPC).
[9] abbreviates: dose: 100.0 mg/kg/injection, schedule: Q01DX001 (ip), vehicle: saline.
[10] abbreviates: dose: 200.0 mg/kg/injection, schedule: Q01DX001 (ip), vehicle: saline.
Setting [11] is: dose: 400.0 mg/kg/injection, schedule: Q01DX001 (ip), vehicle: saline.
[12] abbreviates: dose: 60.0 mg/kg/injection, schedule: Q01DX005 (ip), vehicle: Klucel (hydroxypropylcellulose) (HPC).
Setting [13] is: dose: 120.0 mg/kg/injection, schedule: Q01DX005 (ip), vehicle: Klucel (hydroxypropylcellulose) (HPC).
The mark [14] stands for this setting: dose: 240.0 mg/kg/injection, schedule: Q01DX005 (ip), vehicle: Klucel (hydroxypropylcellulose) (HPC).
The mark [15] stands for this setting: dose: 60.0 mg/kg/injection, schedule: Q01DX005 (ip), vehicle: saline with Tween-80.
[16] abbreviates: dose: 120.0 mg/kg/injection, schedule: Q01DX005 (ip), vehicle: saline with Tween-80.

Where “and” joins values, the source holds several entries; their conditions need not be identical. Equal entries are not always repeated. Toxic doses and inconclusive results are not listed.

Turning to `CC(=O)N(C)c1ccc(Nc2ccc(Nc3ccc(N(C)C(C)=O)cc3)c3c2C(=O)c2ccccc2C3=O)cc1`, the T/C is 100 % of control under setting [1], 100 % of control under setting [2] and 99 % of control under setting [3].
For `Cc1nc2ccc(CCN3CCN(c4ccccc4Cl)CC3)cc2[nH]1`, the T/C (dose: 50.0 mg/kg/injection, schedule: Q01DX001 (ip), vehicle: Klucel (hydroxypropylcellulose) (HPC)) is 100 % of control; the T/C (dose: 100.0 mg/kg/injection, schedule: Q01DX001 (ip), vehicle: Klucel (hydroxypropylcellulose) (HPC)) is 108 % of control and 120 % of control; the T/C (dose: 200.0 mg/kg/injection, schedule: Q01DX001 (ip), vehicle: Klucel (hydroxypropylcellulose) (HPC)) was 116 % of control and 93 % of control.
With `CC(=O)O[C@H]1CC[C@@]2(C)C(=CC[C@@H]3[C@@H]2CC[C@]2(C)C(=NCCCN4CCOCC4)CC[C@@H]32)C1`, the T/C is, setting by setting: under setting [4], 105 % of control; under setting [5], 101 % of control; (dose: 200.0 mg/kg/injection, schedule: Q01DX005 (ip), vehicle: Klucel (hydroxypropylcellulose) (HPC)) 99 % of control.
On to `O=C(O)Cc1sc(=O)[nH]c1O`, for which the T/C was 100 % of control (dose: 100.0 mg/kg/injection, schedule: Q04DX003 (ip), vehicle: saline); 100 % of control (dose: 200.0 mg/kg/injection, schedule: Q04DX003 (ip), vehicle: saline); 95 % of control (dose: 400.0 mg/kg/injection, schedule: Q04DX003 (ip), vehicle: saline).
As for `CSc1nc2ccc(NC(=O)CCC(=O)O)cc2s1`, the T/C is 104 % of control (dose: 6.25 mg/kg/injection, schedule: Q01DX009 (ip), vehicle: Klucel (hydroxypropylcellulose) (HPC)); 101 % of control (dose: 12.5 mg/kg/injection, schedule: Q01DX009 (ip), vehicle: Klucel (hydroxypropylcellulose) (HPC)); 107 % of control (dose: 25.0 mg/kg/injection, schedule: Q01DX009 (ip), vehicle: Klucel (hydroxypropylcellulose) (HPC)).
In the case of `CCOC(=O)CN1C=CC(=C/C(=N/S(=O)(=O)c2ccc(C)cc2)SC)C=C1`, the T/C reads like this: (dose: 25.0 mg/kg/injection, schedule: Q04DX002 (ip), vehicle: saline with Tween-80) 100 % of control; (dose: 50.0 mg/kg/injection, schedule: Q04DX002 (ip), vehicle: saline with Tween-80) 106 % of control; under setting [6], 104 % of control.
Consider `C/C=C(\C)C(=O)Nc1c(C)cccc1Cl`, for which the T/C by setting is: (dose: 100.0 mg/kg/injection, schedule: Q04DX002 (ip), vehicle: Klucel (hydroxypropylcellulose) (HPC)) 106 % of control; (dose: 200.0 mg/kg/injection, schedule: Q04DX002 (ip), vehicle: Klucel (hydroxypropylcellulose) (HPC)) 104 % of control.
Regarding `N/C(=N\O)c1cn(C2OC(CO)C(O)C2O)c2ncnc(N)c12` (centres undefined), the T/C was 154 % of control (dose: 2.5 mg/kg/injection, schedule: Q01DX009 (ip), vehicle: saline sonified) and 159 % of control (dose: 5.0 mg/kg/injection, schedule: Q01DX009 (ip), vehicle: saline sonified).
As to `O=C1NCCc2ccc(cc2)OC2CCNC2C(=O)N2CCCC12` (centres undefined), the T/C was 96 % of control under setting [7], 107 % of control under setting [8] and 100 % of control under setting [4].
On to `S=c1cc(S)sc2c1c(=S)sc1nc3ccccn3c(=S)c12`, for which the T/C under setting [7] was 96 % of control; the T/C under setting [8] was 99 % of control and 98 % of control; the T/C under setting [4] was 96 % of control; the T/C under setting [5] was 107 % of control and 94 % of control.
Regarding `COc1cccc2c1c(=O)c1cc([N+](=O)[O-])ccc1n2C`, the T/C (dose: 100.0 mg/kg/injection, schedule: Q01DX001 (ip), vehicle: saline with Tween-80) is 100 % of control; the T/C (dose: 200.0 mg/kg/injection, schedule: Q01DX001 (ip), vehicle: saline with Tween-80) was 97 % of control; the T/C (dose: 400.0 mg/kg/injection, schedule: Q01DX001 (ip), vehicle: saline with Tween-80) was 86 % of control.
For the compound `CC(=O)Oc1ccc2c(c1)C(=O)CCCCCCC(=O)O2`, the T/C under setting [9] was 101 % of control, the T/C under setting [10] is 95 % of control and the T/C under setting [11] is 105 % of control.
In the case of `O=[N+]([O-])c1ccc(Cl)c(C(Nc2nncs2)Nc2nncs2)c1`, the T/C is 91 % of control under setting [12], 104 % of control under setting [13] and 119 % of control under setting [14].
On to `CC(C)N=Cc1ccccc1O.CC(C)N=Cc1ccccc1O.[Co]`, for which the T/C reads like this: (dose: 12.5 mg/kg/injection, schedule: Q04DX003 (ip), vehicle: saline sonified) 110 % of control; (dose: 25.0 mg/kg/injection, schedule: Q04DX003 (ip), vehicle: saline sonified) 100 % of control; (dose: 50.0 mg/kg/injection, schedule: Q04DX003 (ip), vehicle: saline sonified) 105 % of control.
As for `CCOC(=O)N1CCN(c2cc(C)nc3cc(OC)ccc23)CC1`, the T/C runs as follows: under setting [15], 88 % of control; under setting [16], 94 % of control.
On to `CC(=O)C1CCC=CC1Sc1ccccc1` (centres undefined), for which the T/C reads like this: (dose: 50.0 mg/kg/injection, schedule: Q01DX009 (ip), vehicle: Klucel (hydroxypropylcellulose) (HPC)) 103 % of control; under setting [9], 93 % of control; (dose: 100.0 mg/kg/injection, schedule: Q01DX009 (ip), vehicle: Klucel (hydroxypropylcellulose) (HPC)) 96 % of control; under setting [10], 101 % of control; (dose: 200.0 mg/kg/injection, schedule: Q01DX009 (ip), vehicle: Klucel (hydroxypropylcellulose) (HPC)) 121 % of control; under setting [11], 98 % of control.
Regarding `CCOP(=O)(OCC)c1ncn(Cc2ccccc2)c1N`, the T/C was 97 % of control under setting [9], 104 % of control under setting [10] and 101 % of control under setting [11].
Turning to `Cc1cc(=O)c2c([nH]1)c1c(c3[nH]c(C)cc(=O)c32)Oc2ccccc2O1`, the T/C is 93 % of control under setting [1], 95 % of control under setting [2] and 97 % of control under setting [3].
In the case of `C=C1CC2(CCC3(C)C(CCC4C5CCC(=O)C5(C)CCC43)C2)OC1=O` (centres undefined), the T/C runs as follows: under setting [6], 95 % of control; (dose: 200.0 mg/kg/injection, schedule: Q04DX002 (ip), vehicle: saline with Tween-80) 93 % of control; (dose: 400.0 mg/kg/injection, schedule: Q04DX002 (ip), vehicle: saline with Tween-80) 96 % of control.
With `CCOC1=C(C#N)C(=O)NC2OC(CO)C(O)C2O1` (centres undefined), the T/C is, setting by setting: under setting [12], 104 % of control; under setting [13], 104 % of control; under setting [14], 106 % of control.
With `CC1SC2(C(=O)Nc3ccccc32)N(c2ccc(Cl)cc2)C1=O` (centres undefined), the T/C was 101 % of control under setting [15]; 103 % of control under setting [16]; 96 % of control (dose: 240.0 mg/kg/injection, schedule: Q01DX005 (ip), vehicle: saline with Tween-80).
Consider `CC(C)OC1=C2CCCCC2=[N+]2CCc3ccccc3C2C1` (centres undefined), for which the T/C was 107 % of control (dose: 6.25 mg/kg/injection, schedule: Q04DX003 (ip), vehicle: saline with Tween-80); 107 % of control (dose: 12.5 mg/kg/injection, schedule: Q04DX003 (ip), vehicle: saline with Tween-80); 99 % of control (dose: 25.0 mg/kg/injection, schedule: Q04DX003 (ip), vehicle: saline with Tween-80).
In the case of `CC/C(=C(\c1ccccc1)c1ccc(OCCNC)cc1)c1ccccc1`, the T/C (dose: 15.0 mg/kg/injection, schedule: Q01DX005 (ip), vehicle: Klucel (hydroxypropylcellulose) (HPC)) is 98 % of control; the T/C (dose: 30.0 mg/kg/injection, schedule: Q01DX005 (ip), vehicle: Klucel (hydroxypropylcellulose) (HPC)) was 88 % of control; the T/C under setting [12] was 92 % of control.
As to `CC1(C)CC(=O)C=C(Nc2ccc(O)cc2)C1`, the T/C reads like this: (dose: 6.25 mg/kg/injection, schedule: Q01DX005 (ip), vehicle: saline with Tween-80) 100 % of control; (dose: 12.5 mg/kg/injection, schedule: Q01DX005 (ip), vehicle: saline with Tween-80) 100 % of control; (dose: 25.0 mg/kg/injection, schedule: Q01DX005 (ip), vehicle: saline with Tween-80) 96 % of control; under setting [2], 86 % of control.

Source of the values: PubChem BioAssay AID330 (DTP/NCI, 2004).
